Test results: patent US20070128217A1 (priority 2003, published 2007)

Columns and labels:
[1] = tested on: control sera (pooled serum of ten healthy LUMC hospital workers; commercial negative donor pooled serum from the Dutch bloodbank); type: binding, human; parameters: Binding of Control serum LUMC to linear peptides / Binding of Control serum Blood-bank to linear peptides / Binding of Control serum LUMC to looped peptides / Binding of Control Serum Blood-Bank to Looped peptides / Binding of Control serum LUMC to linear peptides of the protein M of SARS-CoV Urbani / Binding of Control serum Blood-bank to linear peptides of the protein M of SARS-CoV Urbani / Binding of Control serum LUMC to looped peptides of the protein M of SARS-CoV Urbani / Binding of Control Serum Blood-Bank to Looped peptides of the protein M of SARS-CoV Urbani: unit not given here
[2] = tested on: rabbit serum obtained by immunizing a rabbit with the SARS-CoV strain Frankfurt 1; type: binding; parameters: Binding of a rabbit serum to linear peptides / Binding of a rabbit serum to looped peptides / Rabbit serum linear peptides / Rabbit serum looped peptides / Binding of a rabbit serum to linear peptides of protein N of SARS-CoV Urbani (Rabbit serum linear peptides) / Binding of a rabbit serum to looped/cyclic peptides of protein N of SARS-CoV Urbani (Rabbit serum looped peptides): unit not given here
[3] = tested on: antibodies in sera from SARS patients (sera 1a, 1b, 2, 6, 37, 62, London, SARS-yellow, SARS-green); type: binding, human; parameters: Binding of serum 6 to linear peptides of protein X1 of SARS-CoV Urbani / Binding of serum 37 to linear peptides of protein X1 of SARS-CoV Urbani / Binding of serum 6 to looped/cyclic peptide (PEPSCAN-ELISA) / Binding of serum 37 to looped/cyclic peptide (PEPSCAN-ELISA) / Binding of serum 37 to looped/cyclic peptides of protein X1 of SARS-CoV Urbani / Binding of serum 6 to linear peptides of protein X2 / Binding of serum 37 to linear peptides of protein X2 / Binding of serum 37 to looped/cyclic peptides of protein X2 of SARS-CoV Urbani / Binding of serum 6 to linear peptides of protein M of SARS-CoV Urbani / Binding of serum 37 to linear peptides of protein M of SARS-CoV Urbani / Binding of serum 6 to looped/cyclic peptides of protein M of SARS-CoV Urbani / Binding of serum 37 to looped/cyclic peptides of protein M of SARS-CoV Urbani / Binding of serum 6 to linear peptides of protein X3 of SARS-CoV Urbani / Binding of serum 37 to linear peptides of protein X3 of SARS-CoV Urbani / Binding of serum 37 to looped/cyclic peptides of protein X3 of SARS-CoV Urbani / Binding of serum 6 to linear peptides of protein X4 of SARS-CoV Urbani / Binding of serum 37 to linear peptides of protein X4 of SARS-CoV Urbani / Binding of serum 37 to looped/cyclic peptides of protein X4 of SARS-CoV Urbani / Binding of serum 6 to linear peptides of protein X5 of SARS-CoV Urbani / Binding of serum 37 to linear peptides of protein X5 of SARS-CoV Urbani / Binding of serum 37 to looped/cyclic peptides of protein X5 of SARS-CoV Urbani / Binding of serum 6 to linear peptides of protein N of SARS-CoV Urbani / Binding of serum 37 to linear peptides of protein N of SARS-CoV Urbani / Binding of serum 6 to linear peptide (PEPSCAN-ELISA) / Binding of serum 1a to looped/cyclic peptides of protein N of SARS-CoV Urbani / Binding of serum 1b to looped/cyclic peptides of protein N of SARS-CoV Urbani / Binding of serum 2 to looped/cyclic peptides of protein N of SARS-CoV Urbani / Binding of serum 6 to looped/cyclic peptides of protein N of SARS-CoV Urbani / Binding of serum 37 to looped/cyclic peptides of protein N of SARS-CoV Urbani / Binding of serum 62 to looped/cyclic peptides of protein N of SARS-CoV Urbani / Binding of serum London to looped/cyclic peptides of protein N of SARS-CoV Urbani / Binding of serum SARS-green to looped/cyclic peptides of protein N of SARS-CoV Urbani: unit not given here
[4] = tested on: recombinant human anti-SARS-CoV antibody 03-018; type: binding; parameters: Binding of antibody 03-018 to linear peptides of the N protein of SARS-CoV Urbani / Binding of antibody 03-018 to looped/cyclic peptides of the N protein of SARS-CoV Urbani: unit not given here

| Sequence | Binding of Control Serum Blood-Bank to Looped peptides [1] | Binding of Control serum Blood-bank to linear peptides [1] | Binding of Control serum LUMC to linear peptides [1] | Binding of Control serum LUMC to looped peptides [1] | Binding of serum 1a to linear peptides of protein N of SARS-CoV Urbani [3] | Binding of serum 1a to looped/cyclic peptides of protein N of SARS-CoV Urbani [3] | Binding of serum 1b to linear peptides of protein N of SARS-CoV Urbani [3] | Binding of serum 1b to looped/cyclic peptides of protein N of SARS-CoV Urbani [3] | Binding of serum 2 to linear peptides of protein N of SARS-CoV Urbani [3] | Binding of serum 2 to looped/cyclic peptides of protein N of SARS-CoV Urbani [3] | Binding of serum 6 to linear peptides of protein N of SARS-CoV Urbani [3] | Binding of serum 6 to looped/cyclic peptides of protein N of SARS-CoV Urbani [3] | Binding of serum 37 to linear peptides of protein N of SARS-CoV Urbani [3] | Binding of serum 37 to looped/cyclic peptides of protein N of SARS-CoV Urbani [3] | Binding of serum 62 to linear peptides of protein N of SARS-CoV Urbani [3] | Binding of serum 62 to looped/cyclic peptides of protein N of SARS-CoV Urbani [3] | Binding of serum London to linear peptides of protein N of SARS-CoV Urbani [3] | Binding of serum London to looped/cyclic peptides of protein N of SARS-CoV Urbani [3] | Binding of serum SARS-green to linear peptides of protein N of SARS-CoV Urbani [3] | Binding of serum SARS-green to looped/cyclic peptides of protein N of SARS-CoV Urbani [3] | other results |
| --- | --- | --- | --- | --- | --- | --- | --- | --- | --- | --- | --- | --- | --- | --- | --- | --- | --- | --- | --- | --- | --- |
| NGPQSNQRSAPRITF | 0.7 | 0.8 | 0.6 | 0.8 | 0.2 | 0.3 | 0.1 | 0.2 | 0.2 | 0.5 | 0.2 | 0.3 | 0.8 | 0.8 | 0.5 | 0.6 | 0.4 | 0.5 | 0.4 | 0.5 | Recognition of the peptide by the rabbit serum [2]: also recognized; Binding of serum SARS-yellow to linear peptides of protein N of SARS-CoV Urbani [3]: 0.5; Binding of serum SARS-yellow to looped/cyclic peptides of protein N of SARS-CoV Urbani [3]: 0.6; Recognition of the peptide by antibody 03-018 [4]: recognized |
| NNNAATVLQLPQGTT | 0.7 | 0.8 | 0.7 | 0.8 | 0.2 | 0.4 | 0.1 | 0.3 | 0.2 | 0.5 | 0.1 | 0.2 | 0.7 | 0.6 | 0.5 | 0.5 | 0.5 | 0.5 | 0.4 | 0.5 | Binding of a rabbit serum to linear peptides of protein N of SARS-CoV Urbani (Rabbit serum linear peptides) [2]: 0.1; Binding of a rabbit serum to looped/cyclic peptides of protein N of SARS-CoV Urbani (Rabbit serum looped peptides) [2]: 0.4; Binding of serum SARS-yellow to linear peptides of protein N of SARS-CoV Urbani [3]: 0.7; Binding of serum SARS-yellow to looped/cyclic peptides of protein N of SARS-CoV Urbani [3]: 0.4; Binding of antibody 03-018 to linear peptides of the N protein of SARS-CoV Urbani [4]: 0.1; Binding of antibody 03-018 to looped/cyclic peptides of the N protein of SARS-CoV Urbani [4]: 0.3 |
| NNQNGGRNGARPKQR | 0.5 | 0.9 | 0.8 | 0.6 | 0.2 | 0.2 | 0.2 | 0.1 | 0.2 | 0.2 | 0.3 | 0.2 | 0.7 | 0.4 | 0.8 | 0.3 | 0.5 | 0.3 | 0.5 | 0.1 | Binding of a rabbit serum to linear peptides of protein N of SARS-CoV Urbani (Rabbit serum linear peptides) [2]: 0.3; Binding of a rabbit serum to looped/cyclic peptides of protein N of SARS-CoV Urbani (Rabbit serum looped peptides) [2]: 0.7; Binding of serum SARS-yellow to linear peptides of protein N of SARS-CoV Urbani [3]: 0.6; Binding of serum SARS-yellow to looped/cyclic peptides of protein N of SARS-CoV Urbani [3]: 0.3; Binding of antibody 03-018 to linear peptides of the N protein of SARS-CoV Urbani [4]: 0.2; Binding of antibody 03-018 to looped/cyclic peptides of the N protein of SARS-CoV Urbani [4]: 0.2 |
| NNTASWFTALTQHGK | 0.5 | 0.6 | 0.7 | 0.4 | 0.2 | 0.2 | 0.1 | 0.1 | 0.2 | 0.2 | 0.1 | 0.1 | 0.7 | 0.4 | 0.6 | 0.2 | 0.4 | 0.2 | 0.4 | 0.1 | Binding of a rabbit serum to linear peptides of protein N of SARS-CoV Urbani (Rabbit serum linear peptides) [2]: 0.1; Binding of a rabbit serum to looped/cyclic peptides of protein N of SARS-CoV Urbani (Rabbit serum looped peptides) [2]: 0.3; Binding of serum SARS-yellow to linear peptides of protein N of SARS-CoV Urbani [3]: 0.5; Binding of serum SARS-yellow to looped/cyclic peptides of protein N of SARS-CoV Urbani [3]: 0.1; Binding of antibody 03-018 to linear peptides of the N protein of SARS-CoV Urbani [4]: 0.1; Binding of antibody 03-018 to looped/cyclic peptides of the N protein of SARS-CoV Urbani [4]: 0.2 |
